According to patent US10485814B2, “Nicotinamide riboside analogs and pharmaceutical compositions and uses thereof” (GlaxoSmithKline Intellectual Property (No. 2) Limited, priority 2014, dated 2019):
Entries after “also recorded” stand apart in the source; their conditions may differ.

Legend:
Human dermal fibroblasts [1] = assay: TNFα-induced gene expression in dermal fibroblasts (QPCR); type: cell-based; details: 30 hr
Method: Human dermal fibroblasts were grown in regular culture media as described in example 23 above and seeded in 12-well plates at 2×10^5 cells per well for overnight. Cells were then replenished with fresh medium and treated with TNFα (10 ng/ml) with and without NRH (200 μM) for 30 hr. At the end of the incubation, cells were washed once with HBSS with Ca^2+ and Mg^2+ (Life Technologies), and subject to RNA isolation and QPCR analyses.

HaCaT cells = assay: H2O2-induced reactive oxygen species (ROS) in HaCaT cells (CellROX deep red); type: cell-based, human; details: 3 hr pre-incubation then 250 μM H2O2, Hydroxyterosol 0.005%, niacinamide 4.5 mM, NRH several concentrations
Method: HaCaT cells were grown as described in example 23 and were seeded in 96-well plates (Nunc™ black with optical bottom, Thermo Fisher Scientific, Inc., Waltham, Mass.) with a density at 2×10^4 cells per well and 100 μl medium in each well, and grown overnight before treatments. Stock solutions of NRH and other test compounds were prepared and diluted to 2× of final treatment concentrations in DMEM medium in 96-well storage plate as indicated in the FIG. 11. HaCaT Cells were treated in triplicates by adding 100 μl of diluted solutions of test compounds (2×) to each well containing 100 μl medium already. Cells were incubated in the presence of test compounds for 3 hrs. At the end of 3 hr incubation, cells were washed once with 200 μl DPBS with Ca^++ and Mg^++ (Life Technologies) and then fed with 100 μl DMEM medium each well containing H2O2 at 250 μM (as a ROS (reactive oxygen species) inducer, Sigma). After 30 min incubation, cells were washed once with 200 μl DPBS with Ca^++ and Mg^++ and CellROX deep red reagent (2.5 mM stock solution, Life Technologies) was added to the medium to a final concentration of 5 μM. After 1 hr incubation at 37° C., 5% CO2, Cells were washed for 3 times with DPBS, fluorescence signal was read at Ex. 640 nm and Em. 665 nm in Biotek Synergy H4 microplate reader (BioTek, Winooski, Vt.). Untreated cells were served as controls (normalized to 1). All the treated samples were normalized to the untreated control.

[2] = Gravimetric Vapor Sorption (GVS); type: physicochemical
Summary of the method: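 Samples dried under nitrogen 5 h at 25 °C, then sorption ramp from 5% to 95% or 90% RH and desorption back to 5% or 10% RH, all at 25 °C. Each RH step held 4 h; mass change by microbalance.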

[3] = Storage in a 93% RH salt chamber; type: physicochemical; details: approximately 22° C., approximately 2¼ hours
Method: XRD indicated the sample was amorphous (FIG. 16). A sample of NRH was stored in a 93% RH (relative humidity) salt chamber (at approximately 22° C.) for approximately 2¼ hours. The sample had deliquesced and there was no evidence of crystallization based on XRD analysis.

Human dermal fibroblasts [4] = assay: UVA-induced gene expression in dermal fibroblasts (QPCR); type: cell-based; details: NRH 200 μM for 5 days, UVA 5 or 7.5 J/cm^2
Method: Human dermal fibroblasts were grown in regular culture media as described in example 1 and seeded in 12-well plates at 2×10^5 cells per well for overnight. Before UVA exposure, culture media were removed and PBS (500 μl) was added to each well. Cells were treated with NRH at 200 μM in culture media for 5 days, and only exposed to UVA at 5 J/cm^2 or 7.5 J/cm^2 every other day on day 0 and day 3. The Newport DS-101103 UV Solar Simulator with UV-A-F filter (Sol-UV-A-F) (Newport Corporate) was used as the UVA emitter. Measurement of the irradiation was taken using an ILT-1400-A radiometer/photometer with a UVA probe (SSL001A, international light technologies, Inc.). After UVA exposure, PBS was removed from each well and media with NRH were added to cells. Cells were harvested for RNA isolation after 5 days treatment.

In the case of `NC(=O)C1=CN([C@@H]2O[C@H](CO)[C@@H](O)[C@H]2O)C=CC1` [NRH, dihydronicotinamide riboside], the “basal COX-2 gene expression” value (Human dermal fibroblasts [1]; NRH 200 μM) is reported as “reduced”, the “expression level of NRF2” value (Human dermal fibroblasts [1]; NRH 200 μM) is reported as “slightly increased” and the “TNF-α-induced COX-2 gene expression” value (Human dermal fibroblasts [1]; TNFα 10 ng/ml with NRH 200 μM) is reported as “reduced”. The “H2O2-induced ROS” value (HaCaT cells) was “dose-dependent inhibitory activities”, the GVS weight gain ([2]; 90% RH, 25° C., after drying) was “greater than 60 % w/w” and the “hygroscopicity by GVS” value ([2]; GVS isotherm 25° C.) was “hygroscopic”. The “behaviour on storage at high humidity” value [3] was “deliquesced”, the “COX-2 expression compared to UVA alone” value (Human dermal fibroblasts [4]) was “reduced; also recorded: decreases” and the “NQO-1 expression compared to UVA alone” value (Human dermal fibroblasts [4]) was “increases”. For the same molecule, the “NRF-2 expression compared to UVA alone” value (Human dermal fibroblasts [4]) was “increases”.
